# Experimental data as given in patent US10568868B2, “Methods and compositions for treating metabolic reprogramming disorders” (THE JOHNS HOPKINS UNIVERSITY, priority 2015, dated 2020).
# Like-named read-outs stand apart in the source and are kept apart here.
# Key:
# [1] = human microsomes
# [2] = pig microsomes
# [3] = test system: mouse model of asthma; test: Mouse model of asthma (House Dust Mite antigen sensitization and rechallenge); format: in vivo, mice; conditions: treated upon intratracheal rechallenge
# Experimental: Mice were sensitized to House Dust Mite antigen (HDM) in the absence of drug. Upon intratracheal rechallenge the mice were treated with vehicle or 25.
# [4] = test system: Neuromyelitis Optica; test: Neuromyelitis optica model (adoptive transfer of auto-reactive T cells); design: species or system mice; conditions: mouse, in vivo
# Experimental: Auto-reactive T cells were adoptively transferred into mice treated with PBS or 25 and mean paralysis scores were measured.
# [5] = test system: EAE; test: Multiple sclerosis model (EAE, C57BL/6+MOG35-55); format: in vivo, mice
# Experimental: FIG. 21A and FIG. 21B show the targeting of glutamine metabolism in multiple sclerosis. Animals were immunized for EAE (C57BL/6+MOG35-55). Mice were treated with vehicle or 25 either q.d. from the day of immunization (day 0, left), or b.d. from the time of disease onset (EAE disease score≥1, right).
# [6] = test system: 4T1-Luc tumor cells; test: 4T1-Luc mammary tumor model: myeloid cells, TAM and fibrocytes by flow cytometry; format: in vivo, BALB/c mice; conditions: 1 mg/kg daily from day 7 to day 17
# Experimental: 4T1-Luc tumor cells (0.1 million) were injected into the mammary fat pads of 8-week-old female BALB/c mice. Mice received vehicle (PBS) or 1 mg/kg 25 daily from day 7 to day 17. Anti-PD1 antibody (5 mg/Kg) was administered i.p. on day 5, 8, 12 and 17. Percentages of myeloid-derived suppressor cell (MDSC) from circulating blood were monitored on day 6, 9 and 17 by flow cytometry with CD11b and Ly6C/Ly6G. Granulocytic MDSC (G-MDSC): CD11b+ Ly6g+ Ly6c low Monocytic MDSC (Mo-MDSC): CD11b+ Ly6G-Ly6c Hi.
# 4T1-Luc tumor cells (0.2 million) were injected into the mammary fat pads of 8-week-old female BALB/c mice. Mice received vehicle (PBS) or 1 mg/kg compound 25 daily from day 7 to day 17. Anti-PD1 antibody (5 mg/Kg) was administered on day 5, 8, 12 and 17. Tumors were evaluated for tumor infiltrating cells on day 21. Cells were seeded on plates and golgi plug 200 ul were added to inhibit cytokine secretion for overnight (no additional stimulation). Tumor associated macrophages markers: Live/CD45+/CD11b+/F4-80+/CD8− for flow cytometry analysis. Macrophages derived from tumor. The cells were incubated with Golgi plug o.n. w/o stim. TAM: Live/CD45+/CD11b+/F4-80+/CD8−.
# 4T1-Luc tumor cells (0.1 million) were injected into the mammary fat pads of 8-week-old female BALB/c mice. Mice received vehicle (PBS) or 1 mg/kg 25 daily from day 7 to day 17. Anti-PD1 antibody (5 mg/Kg) was administered on day 5, 8, 12 and 17. Tumors were evaluated for tumor infiltrating cells on day 21. Fibrocytes markers: CollagenI+CD11b+CD45+ live were used for flow cytometry analysis.
smiles,measurement,setting,value
CCOC(=O)[C@H](CCC(=O)C=[N+]=[N-])NC(=O)[C@@H](N)CC(C)C [Compound 25],liver microsomal stability,[1],moderate-high stability
same,liver microsomal stability,[2],moderate-high stability
same,levels of HDM specific IgE,[3],reduced
same,lung pathology,[3],inhibited pathology
same,recruitment/generation of Th2 cells,[3],inhibited
same,mean paralysis scores,[4],unexpected effectiveness
same,"EAE disease, treatment",[5]; b.d. from the time of disease onset (EAE disease score≥1),unexpected effectiveness
same,"EAE disease, prevention",[5]; q.d. from the day of immunization (day 0),unexpected effectiveness
same,CD11b+ cells and G-MDSCs in circulating blood,[6]; anti-PD1 antibody also given,reduced CD11b+ cells and G-MDSCs
same,TNF alpha in tumor associated macrophages,[6]; tumors evaluated day 21,increased TNF alpha
same,tumor infiltrating fibrocytes,[6]; tumors evaluated day 21,reduced fibrocytes
